According to ChEMBL document CHEMBL3885881, “DrugMatrix”:

Species: Rattus norvegicus
Assay: DrugMatrix - Regimen: Daily Repeat
Assay type: toxicity, organism-based, Sprague-Dawley
Parameters: regimen Daily Repeat, gender Male, age 6-8 weeks
Details: in vivo, po, route oral GAVAGE, […]; for ABSOLUTE BASOPHIL / ABSOLUTE EOSINOPHIL / ABSOLUTE LYMPHOCYTE / ABSOLUTE MONOCYTE / ABSOLUTE SEGMENTED NEUTROPHIL / BASOPHIL / EOSINOPHIL / ERYTHROCYTE COUNT / HEMATOCRIT / HEMOGLOBIN / LEUKOCYTE COUNT / LYMPHOCYTE / MEAN CORPUSCULAR HEMOGLOBIN / MEAN CORPUSCULAR HEMOGLOBIN CONCENTRATION / MEAN CORPUSCULAR VOLUME / MONOCYTE / NEUTROPHIL / NUCLEATED RED BLOOD CELLS / PLATELET COUNT: tissue Blood; for ALANINE AMINOTRANSFERASE / ALBUMIN / ALKALINE PHOSPHATASE / ASPARTATE AMINOTRANSFERASE / BLOOD UREA NITROGEN / CARBON DIOXIDE / CHLORIDE / CHOLESTEROL / CREATINE PHOSPHOKINASE / CREATININE / GLUCOSE / LACTATE DEHYDROGENASE / LIPASE / PHOSPHORUS / POTASSIUM / SODIUM / TOTAL BILIRUBIN / TOTAL PROTEIN / URIC ACID: tissue Plasma
[1] = 0 mg/kg, 72 h, dose level Control, time 3 day
[2] = 0 mg/kg, 120 h, dose level Control, time 5 day
[3] = 3 mg/kg, 72 h, dose level Low, time 3 day

CC#C[C@]1(O)CC[C@H]2[C@@H]3CCC4=CC(=O)CCC4=C3[C@@H](c3ccc(N(C)C)cc3)C[C@@]21C [MIFEPRISTONE]
ABSOLUTE BASOPHIL [1]: 0 CELLS/uL | ABSOLUTE EOSINOPHIL [1]: 14 CELLS/uL | ABSOLUTE LYMPHOCYTE [1]: 11144.67 CELLS/uL | ABSOLUTE MONOCYTE [1]: 22.5 CELLS/uL | ABSOLUTE SEGMENTED NEUTROPHIL [1]: 535.5 CELLS/uL | BASOPHIL [1]: 0% | EOSINOPHIL [1]: 0.17% | ERYTHROCYTE COUNT [1]: 5.08 x10E6/uL | HEMATOCRIT [1]: 32.32% | HEMOGLOBIN [1]: 12.87 G/DL | LEUKOCYTE COUNT [1]: 11.72 x10E3/uL | LYMPHOCYTE [1]: 94.67% | MEAN CORPUSCULAR HEMOGLOBIN [1]: 25.37 pg | MEAN CORPUSCULAR HEMOGLOBIN CONCENTRATION [1]: 39.85 G/DL | MEAN CORPUSCULAR VOLUME [1]: 63.58 fL | MONOCYTE [1]: 0.17% | NEUTROPHIL [1]: 5% | NUCLEATED RED BLOOD CELLS [1]: 0 /100WBC | PLATELET COUNT [1]: 1084 x10E3/uL | ALANINE AMINOTRANSFERASE [1]: 67.5 u/L | ALBUMIN [1]: 4.02 G/DL | ALKALINE PHOSPHATASE [1]: 374.17 u/L | ASPARTATE AMINOTRANSFERASE [1]: 83.5 u/L | BLOOD UREA NITROGEN [1]: 14.5 mg/dL | CARBON DIOXIDE [1]: 30 mmol/L | CHLORIDE [1]: 100.5 MEQ/L | CHOLESTEROL [1]: 71.33 mg/dL | CREATINE PHOSPHOKINASE [1]: 268.33 u/L | CREATININE [1]: 0.16 mg/dL | GLUCOSE [1]: 170.5 mg/dL | LACTATE DEHYDROGENASE [1]: 81.17 u/L | LIPASE [1]: 16.67 u/L | PHOSPHORUS [1]: 10.07 mg/dL | POTASSIUM [1]: 5.03 MEQ/L | SODIUM [1]: 142.92 MEQ/L | TOTAL BILIRUBIN [1]: 0.17 mg/dL | TOTAL PROTEIN [1]: 5.63 G/DL | URIC ACID [1]: 0.5 mg/dL | ABSOLUTE BASOPHIL [2]: 0 CELLS/uL | ABSOLUTE EOSINOPHIL [2]: 37.5 CELLS/uL | ABSOLUTE LYMPHOCYTE [2]: 8049.5 CELLS/uL | ABSOLUTE MONOCYTE [2]: 82.83 CELLS/uL | ABSOLUTE SEGMENTED NEUTROPHIL [2]: 646.83 CELLS/uL | BASOPHIL [2]: 0% | EOSINOPHIL [2]: 0.5% | ERYTHROCYTE COUNT [2]: 5.36 x10E6/uL | HEMATOCRIT [2]: 33.9% | HEMOGLOBIN [2]: 13.02 G/DL | LEUKOCYTE COUNT [2]: 8.82 x10E3/uL | LYMPHOCYTE [2]: 90.17% | MEAN CORPUSCULAR HEMOGLOBIN [2]: 24.32 pg | MEAN CORPUSCULAR HEMOGLOBIN CONCENTRATION [2]: 38.42 G/DL | MEAN CORPUSCULAR VOLUME [2]: 63.32 fL | MONOCYTE [2]: 1.17% | NEUTROPHIL [2]: 8.17% | NUCLEATED RED BLOOD CELLS [2]: 0.17 /100WBC | PLATELET COUNT [2]: 1231.5 x10E3/uL | ALANINE AMINOTRANSFERASE [2]: 62 u/L | ALBUMIN [2]: 3.97 G/DL | ALKALINE PHOSPHATASE [2]: 303.67 u/L | ASPARTATE AMINOTRANSFERASE [2]: 84.5 u/L | BLOOD UREA NITROGEN [2]: 14.83 mg/dL | CARBON DIOXIDE [2]: 31.83 mmol/L | CHLORIDE [2]: 97 MEQ/L | CHOLESTEROL [2]: 68.83 mg/dL | CREATINE PHOSPHOKINASE [2]: 411.33 u/L | CREATININE [2]: 0.16 mg/dL | GLUCOSE [2]: 170.17 mg/dL | LACTATE DEHYDROGENASE [2]: 88.5 u/L | LIPASE [2]: 9.5 u/L | PHOSPHORUS [2]: 9.98 mg/dL | POTASSIUM [2]: 5.72 MEQ/L | SODIUM [2]: 141.62 MEQ/L | TOTAL BILIRUBIN [2]: 0.1 mg/dL | TOTAL PROTEIN [2]: 5.67 G/DL | URIC ACID [2]: 0.52 mg/dL | ABSOLUTE BASOPHIL [3]: 0 CELLS/uL | ABSOLUTE EOSINOPHIL [3]: 0 CELLS/uL | ABSOLUTE LYMPHOCYTE [3]: 9937.33 CELLS/uL | ABSOLUTE MONOCYTE [3]: 98.67 CELLS/uL | ABSOLUTE SEGMENTED NEUTROPHIL [3]: 897.33 CELLS/uL | BASOPHIL [3]: 0% | EOSINOPHIL [3]: 0% | ERYTHROCYTE COUNT [3]: 4.8 x10E6/uL | HEMATOCRIT [3]: 31.67% | HEMOGLOBIN [3]: 12.47 G/DL | LEUKOCYTE COUNT [3]: 10.93 x10E3/uL | LYMPHOCYTE [3]: 91.33% | MEAN CORPUSCULAR HEMOGLOBIN [3]: 25.97 pg | MEAN CORPUSCULAR HEMOGLOBIN CONCENTRATION [3]: 39.4 G/DL | MEAN CORPUSCULAR VOLUME [3]: 66.03 fL | MONOCYTE [3]: 1% | NEUTROPHIL [3]: 7.67% | NUCLEATED RED BLOOD CELLS [3]: 0 /100WBC | PLATELET COUNT [3]: 1024.33 x10E3/uL | ALANINE AMINOTRANSFERASE [3]: 67 u/L | ALBUMIN [3]: 3.93 G/DL | ALKALINE PHOSPHATASE [3]: 384 u/L | ASPARTATE AMINOTRANSFERASE [3]: 83 u/L | BLOOD UREA NITROGEN [3]: 13 mg/dL | CARBON DIOXIDE [3]: 30.33 mmol/L | CHLORIDE [3]: 100.67 MEQ/L | CHOLESTEROL [3]: 68 mg/dL | CREATINE PHOSPHOKINASE [3]: 246.67 u/L | CREATININE [3]: 0.12 mg/dL | GLUCOSE [3]: 171 mg/dL | LACTATE DEHYDROGENASE [3]: 78.33 u/L | LIPASE [3]: 10 u/L | PHOSPHORUS [3]: 10.13 mg/dL | POTASSIUM [3]: 5.79 MEQ/L | SODIUM [3]: 143.5 MEQ/L | TOTAL BILIRUBIN [3]: 0.17 mg/dL | TOTAL PROTEIN [3]: 5.6 G/DL | URIC ACID [3]: 0.57 mg/dL
